Active and inactive are the calls of the source. No cut-off for these calls is given here.
Tests used:
[1] = molecular target: T1, Adenosine receptor A2b (Homo sapiens, UniProt P29275); assay: Displacement of [3H]-MRS-1754 from human adenosine receptor A2b expressed in HEK293 cell membranes after 90 mins by liquid scintillation counting method
T1 sequence (P29275 whole entry): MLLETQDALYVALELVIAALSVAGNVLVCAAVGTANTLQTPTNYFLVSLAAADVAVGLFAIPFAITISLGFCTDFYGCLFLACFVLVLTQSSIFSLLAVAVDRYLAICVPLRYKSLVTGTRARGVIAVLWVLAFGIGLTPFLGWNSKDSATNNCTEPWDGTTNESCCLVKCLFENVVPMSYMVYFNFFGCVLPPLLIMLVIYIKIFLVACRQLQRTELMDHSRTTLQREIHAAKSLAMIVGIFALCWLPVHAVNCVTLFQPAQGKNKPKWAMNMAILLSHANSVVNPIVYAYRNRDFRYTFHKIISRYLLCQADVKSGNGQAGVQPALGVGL

[2] = molecular target: T2, Adenosine receptor A1 (Homo sapiens) (UniProt P30542); assay: Displacement of [3H]DPCPX from human adenosine receptor A1 expressed in HEK293 cell membranes at 0.1 uM after 90 mins by liquid scintillation counting method relative to control
T2 sequence (whole entry): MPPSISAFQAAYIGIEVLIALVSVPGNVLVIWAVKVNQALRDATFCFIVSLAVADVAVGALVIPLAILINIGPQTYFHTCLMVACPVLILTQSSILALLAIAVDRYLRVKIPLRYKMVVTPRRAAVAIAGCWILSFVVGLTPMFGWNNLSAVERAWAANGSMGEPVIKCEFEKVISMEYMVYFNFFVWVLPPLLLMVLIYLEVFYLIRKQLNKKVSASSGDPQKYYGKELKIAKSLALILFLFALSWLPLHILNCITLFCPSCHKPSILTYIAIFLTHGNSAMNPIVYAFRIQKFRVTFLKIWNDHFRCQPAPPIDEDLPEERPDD

[3] = molecular target: T3, Adenosine receptor A2a (Homo sapiens, UniProt P29274); assay: Displacement of [3H]-ZM-241385 from human adenosine receptor A2a expressed in HEK293 cell membranes at 0.1 uM after 90 mins by liquid scintillation counting method relative to control
[4] = molecular target: T4, Adenosine receptor A3 (Homo sapiens) (UniProt P0DMS8); assay: Displacement of [3H]-HEM-ADO from human adenosine receptor A3 expressed in HEK293 cell membranes at 1 uM after 90 mins by liquid scintillation counting method relative to control
T4 sequence (whole entry): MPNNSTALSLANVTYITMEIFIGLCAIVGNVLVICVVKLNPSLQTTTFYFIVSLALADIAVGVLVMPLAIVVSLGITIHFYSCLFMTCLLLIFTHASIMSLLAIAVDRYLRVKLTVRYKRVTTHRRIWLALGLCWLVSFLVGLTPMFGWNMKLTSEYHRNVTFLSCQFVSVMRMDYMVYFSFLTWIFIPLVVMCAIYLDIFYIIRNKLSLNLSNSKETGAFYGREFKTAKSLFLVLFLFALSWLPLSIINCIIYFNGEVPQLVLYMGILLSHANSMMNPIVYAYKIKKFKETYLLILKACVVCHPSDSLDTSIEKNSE

[5] = Solubility of the compound; type: physicochemical
[6] = test system: Liver; assay: Metabolic stability in mouse liver microsomes assessed as metabolic rate per mg protein preincubated for 5 mins followed by NADPH addition measured up to 30 mins by LC-MS/MS analysis; type: ADME, microsome; conditions: 0.5 h
[7] = test system: Liver; assay: Metabolic stability in human liver microsomes assessed as metabolic rate per mg protein preincubated for 5 mins followed by NADPH addition measured up to 30 mins by LC-MS/MS analysis; type: ADME, microsome; conditions: 0.5 h
[8] = molecular target: T5, Adenosine receptor A1 (Homo sapiens, UniProt P30542); assay: Displacement of [3H]DPCPX from human adenosine receptor A1 expressed in HEK293 cell membranes after 90 mins by liquid scintillation counting method
T5 sequence (P30542 whole entry): T2 sequence (whole entry)

[9] = molecular target: T3, Adenosine receptor A2a; assay: Displacement of [3H]-ZM-241385 from human adenosine receptor A2a expressed in HEK293 cell membranes after 90 mins by liquid scintillation counting method
[10] = species: Homo sapiens; assay: Selectivity ratio of Ki for human adenosine receptor A1 expressed in HEK293 cell membranes to Ki for human adenosine receptor A2b expressed in HEK293 cell membranes; type: cell-based
[11] = species: Homo sapiens; assay: Selectivity ratio of Ki for human adenosine receptor A2a expressed in HEK293 cell membranes to Ki for human adenosine receptor A2b expressed in HEK293 cell membranes; type: cell-based
[12] = molecular target: T1, Adenosine receptor A2b; assay: Antagonist activity at human adenosine receptor A2b expressed in HEK293 cells assessed as inhibition of NECA-induced cAMP level preincubated for 15 mins followed by NECA stimulation for 15 mins by HTRF assay; type: functional, cell-based
[13] = Cmax in C57BL/6J mouse at 10 mg/kg, po via gavage by LC-MS/MS analysis; type: ADME, organism-based; parameters: dose 10 mg/kg, route oral; conditions: in vivo
[14] = AUC(0 to t) in C57BL/6J mouse at 10 mg/kg, po via gavage by LC-MS/MS analysis; type: ADME, organism-based; conditions: in vivo
[15] = Half life in C57BL/6J mouse at 10 mg/kg, po via gavage by LC-MS/MS analysis; type: ADME, organism-based; conditions: in vivo
[16] = Oral bioavailability in C57BL/6J mouse at 10 mg/kg via gavage by LC-MS/MS analysis; type: ADME, organism-based; conditions: in vivo
[17] = Inhibition of CYP450 (unknown origin); type: ADME, Homo sapiens
[18] = test system: MDCK; assay: Cytotoxicity against MDCK cells; conditions: Canis lupus familiaris
[19] = test system: HepG2; assay: Cytotoxicity against human HepG2 cells
[20] = test system: Mus musculus; assay: (§1) Antiallergic activity in Balb/c mouse model of ovalbumin-induced allergic asthma assessed as inhibition of NECA-induced airway hyperresponsiveness in ovalbumin sensitized mouse at 3 mg/kg, ip bid administered 1 hr before OVA challenge for 60 mins followed by test compound treatment 5 hrs after OVA challenge on day 12 to 15 measured on day 15; type: functional, organism-based
[21] = test system: Mus musculus; assay: as §1, with “total cell count in BALF” for “NECA-induced airway hyperresponsiveness”; type: functional, organism-based

T3 sequence (P29274 whole entry): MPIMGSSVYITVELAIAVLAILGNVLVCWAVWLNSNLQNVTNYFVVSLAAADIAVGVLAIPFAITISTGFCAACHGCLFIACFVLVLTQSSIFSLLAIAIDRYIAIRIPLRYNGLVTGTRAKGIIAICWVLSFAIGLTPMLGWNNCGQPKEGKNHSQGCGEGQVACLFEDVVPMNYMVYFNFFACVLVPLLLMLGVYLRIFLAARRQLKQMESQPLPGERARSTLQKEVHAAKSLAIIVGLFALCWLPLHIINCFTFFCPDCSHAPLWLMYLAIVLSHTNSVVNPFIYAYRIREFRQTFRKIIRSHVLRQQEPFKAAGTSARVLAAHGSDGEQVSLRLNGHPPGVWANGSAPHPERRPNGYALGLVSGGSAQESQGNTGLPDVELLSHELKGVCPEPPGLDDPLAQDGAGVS

Row | Compound | Ki [1] | inhibition [2] | inhibition [3] | inhibition [4] | solubility [5] | Drug metabolism [6] | Drug metabolism [7] | Ki [8] | Ki [9] | Ratio Ki [10] | Ratio Ki [11] | Ki [12] | further results
1 | CCCn1c(=O)c2[nH]c(-c3ccc(OCC4CC(=O)N(c5ccc(F)cc5)C4)nc3)nc2n(CCC)c1=O (configuration not stated) | 4 nM | 30% | 80% | 53% | Insoluble |  |  |  |  |  |  |  | 
2 | CCCn1c(=O)c2[nH]c(-c3ccc(OCC4CC(=O)N(c5cccc(C(F)(F)F)c5)C4)cc3)nc2n(CCC)c1=O (configuration not stated) | 7.5 nM | 1% | 80% | 13% | Insoluble | 0.06 nmol/min/mg | 0.09 nmol/min/mg |  |  |  |  |  | 
3 | CCCn1c(=O)c2[nH]c(-c3cnn(CC(=O)N4CCN(c5cccc(C(F)(F)F)c5)CC4)c3)nc2n(CCC)c1=O | 1.5 nM | 32% | 37% | 0% |  | 0.04 nmol/min/mg | 0.16 nmol/min/mg | 177 nM | 57 nM | 118 | 38 | 4 nM | Cmax [13]: 44 µM; AUC(0-t) [14]: 51 µM·h; half-life [15]: 1.9 h; bioavailability [16]: 65%; IC50 [17]: > 25000 nM; IC50 [18]: > 100000 nM; IC50 [19]: > 100000 nM; inhibition [20]: Active; inhibition [21]: Active
4 | CCCn1c(=O)c2[nH]c(-c3ccc(OCC4CC(=O)N(c5ccc(C(F)(F)F)cc5)C4)cc3)nc2n(CCC)c1=O (configuration not stated) | 1 nM | 29% | 60% | 23% | Insoluble | 0.01 nmol/min/mg | 0.05 nmol/min/mg |  |  |  |  |  | 
5 | CCCn1c(=O)c2[nH]c(-c3ccc(OCC4CC(=O)N(c5ccc(F)cc5)C4)cc3)nc2n(CCC)c1=O (configuration not stated) | 5.4 nM | 29% | 89% | 44% | Insoluble |  |  |  |  |  |  |  | 
6 | CCCn1c(=O)c2[nH]c(-c3cnn(CC4CC(=O)N(c5ccc(F)cc5)C4)c3)nc2n(CC)c1=O (configuration not stated) | 12 nM | 22% | 33% | 0% |  | 0.15 nmol/min/mg | 0 nmol/min/mg | 346 nM | 192 nM | 28 | 16 | 4 nM | 
7 | CCCn1c(=O)c2[nH]c(-c3ccc(OCC4CC(=O)N(c5cccc(F)c5)C4)nc3)nc2n(CCC)c1=O (configuration not stated) | 4.6 nM | 17% | 85% | 53% | Insoluble |  |  |  |  |  |  |  | 
8 | CCCn1c(=O)c2[nH]c(-c3ccc(OCC4CC(=O)N(c5cccc(C(F)(F)F)c5)C4)nc3)nc2n(CCC)c1=O (configuration not stated) | 8.7 nM | 4% | 71% | 26% | Insoluble | 0 nmol/min/mg | 0.05 nmol/min/mg |  |  |  |  |  | 
9 | CCCn1c(=O)c2[nH]c(-c3cnn(CC4CC(=O)N(c5ccc(C(F)(F)F)cc5)C4)c3)nc2n(CC)c1=O (configuration not stated) | 4 nM | 6% | 4% | 4% |  | 0.16 nmol/min/mg | 0.08 nmol/min/mg | 670 nM | 460 nM | 167 | 115 | 8 nM | Cmax [13]: 3.8 µM; AUC(0-t) [14]: 2.9 µM·h; half-life [15]: 0.9 h; bioavailability [16]: 11%
10 | CCCn1c(=O)c2[nH]c(-c3ccc(OCC4CC(=O)N(c5ccc(C(F)(F)F)cc5)C4)nc3)nc2n(CCC)c1=O (configuration not stated) | 3 nM | 25% | 46% | 0% | Insoluble | 0 nmol/min/mg | 0.02 nmol/min/mg | > 800 nM | 53 nM | > 266 | 17 | 71 nM | 
11 | CCCn1c(=O)c2[nH]c(-c3cnn(CC4CC(=O)N(c5ccc(OC)cc5)C4)c3)nc2n(CC)c1=O (configuration not stated) | 16 nM | 15% | 21% | 14% |  | 0.07 nmol/min/mg | 0.11 nmol/min/mg | 711 nM | 486 nM | 44 | 30 | 14 nM | 
12 | CCCn1c(=O)c2[nH]c(-c3ccc(OCC4CC(=O)N(c5cccc(F)c5)C4)cc3)nc2n(CCC)c1=O (configuration not stated) | 9 nM | 33% | 89% | 19% | Insoluble |  |  |  |  |  |  |  | 
13 | CCCn1c(=O)c2[nH]c(-c3cnn(CC4CC(=O)N(c5ccc(C(F)(F)F)cc5)C4)c3)nc2n(CCC)c1=O (configuration not stated) | 1 nM | 49% | 52% | 0% |  | 0.16 nmol/min/mg | 0.02 nmol/min/mg | 108 nM | 124 nM | 108 | 124 | 0.9 nM | Cmax [13]: 16.7 µM; AUC(0-t) [14]: 21 µM·h; half-life [15]: 2.4 h; bioavailability [16]: 27%
14 | CCCn1c(=O)c2[nH]c(-c3cnn(CC4CCN(c5ccc(OC(F)(F)F)cc5)C4=O)c3)nc2n(CCC)c1=O (configuration not stated) | 6 to 8 nM | 51% | 7% | 32% |  | 0.03 nmol/min/mg | 0.02 nmol/min/mg | 340 nM | 36 nM | 56 | 6 | 191 nM | 
15 | CCCn1c(=O)c2[nH]c(-c3cc(OCC4CC(=O)N(c5ccc(C(F)(F)F)cc5)C4)no3)nc2n(CCC)c1=O (configuration not stated) | 12.8 nM | 0% | 18% | 0% |  | 0.04 nmol/min/mg | 0.07 nmol/min/mg | 4200 nM | 2900 nM | 328 | 226 | 540 nM | 

From ChEMBL document CHEMBL3994582, “A2B adenosine receptor antagonists: Design, synthesis and biological evaluation of novel xanthine derivatives” (Eur J Med Chem, 2017)
